The subject of one data set is L-type calcium channels. Put plainly: FLIPR L-Type Calcium Channel Assay. Format: cell-based, murine. Particulars: HL-1 cells expressing endogenous L-type calcium channels; calcium influx after 20 mM KCl; read-out: L-type Ca^2+ IC50. Put shortly: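 After a 15 min compound pre-incubation at 37 °C with 2.5 mM probenecid, L-type channels were opened by depolarising with 20 mM KCl (final). Fluorescence (488 nm excitation, 510–570 nm emission) was read for 5 min.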

For the next data set, the target named is HERG (Homo sapiens, UniProt Q12809). Put plainly: HERG Patch Clamp EP. The following applies: for inhibition at 10 µM: human, HEK cells stably overexpressing HERG.
Chain of HERG (Q12809 whole entry): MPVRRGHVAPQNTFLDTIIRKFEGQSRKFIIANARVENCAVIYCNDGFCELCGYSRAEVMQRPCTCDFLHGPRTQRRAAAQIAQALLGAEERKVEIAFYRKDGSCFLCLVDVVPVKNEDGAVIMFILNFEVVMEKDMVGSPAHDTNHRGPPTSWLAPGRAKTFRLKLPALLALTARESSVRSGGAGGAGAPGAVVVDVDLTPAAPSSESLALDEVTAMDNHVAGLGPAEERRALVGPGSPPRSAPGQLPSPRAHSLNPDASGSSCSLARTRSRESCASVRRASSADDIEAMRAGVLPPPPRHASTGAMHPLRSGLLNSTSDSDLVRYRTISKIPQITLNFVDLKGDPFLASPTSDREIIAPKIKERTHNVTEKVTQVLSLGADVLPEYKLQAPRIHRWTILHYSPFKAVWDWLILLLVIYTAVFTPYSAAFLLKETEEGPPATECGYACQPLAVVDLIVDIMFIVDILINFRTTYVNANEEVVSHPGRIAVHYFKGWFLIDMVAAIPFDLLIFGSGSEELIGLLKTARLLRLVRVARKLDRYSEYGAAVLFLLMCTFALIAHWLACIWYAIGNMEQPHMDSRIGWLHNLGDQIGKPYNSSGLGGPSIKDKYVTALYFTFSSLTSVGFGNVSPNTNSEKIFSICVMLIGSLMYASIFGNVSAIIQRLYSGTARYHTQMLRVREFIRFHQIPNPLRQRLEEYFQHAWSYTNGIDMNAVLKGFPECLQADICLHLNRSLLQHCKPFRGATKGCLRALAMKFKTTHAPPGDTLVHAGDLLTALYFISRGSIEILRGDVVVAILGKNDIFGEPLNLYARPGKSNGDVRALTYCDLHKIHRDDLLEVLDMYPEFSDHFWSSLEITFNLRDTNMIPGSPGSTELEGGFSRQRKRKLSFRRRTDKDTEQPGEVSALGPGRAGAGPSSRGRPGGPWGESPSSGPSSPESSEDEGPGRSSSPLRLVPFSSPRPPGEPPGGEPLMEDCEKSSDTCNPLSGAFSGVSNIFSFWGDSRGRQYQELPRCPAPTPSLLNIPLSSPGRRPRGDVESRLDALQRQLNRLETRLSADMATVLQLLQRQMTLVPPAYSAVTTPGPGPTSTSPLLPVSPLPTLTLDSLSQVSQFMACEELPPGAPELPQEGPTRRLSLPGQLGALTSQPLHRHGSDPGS
A further data set addresses T1, Kv1.5 (Homo sapiens, UniProt P22460).
T1 construct: expressed in transfected cells; host or cells: HEK or LTK- cells
Put plainly: Kv1.5 Patch Clamp EP. Type of data set: cell-based. Particulars: whole cell patch clamp; for inhibition at 1 µM: single point, Kv1.5 stably over expressed in HEK or LTK- cells; for pIC50: HEK or LTK- cells, at least four concentrations, n=3. The procedure:
The external solution is standard Tyrodes solution. […] Inhibition was measured at the end of the 1 second pulses and expressed relative to controls. Initial Kv1.5 inhibition is estimated by single point determinations done at 1 μM.

The text below walks through data of patent publication US7504517B2, “Kv1.5 potassium channel inhibitors” (Wyeth, priority 2006, dated 2009).

pIC50: −log10 of the molar value.

T1 sequence (P22460 whole entry): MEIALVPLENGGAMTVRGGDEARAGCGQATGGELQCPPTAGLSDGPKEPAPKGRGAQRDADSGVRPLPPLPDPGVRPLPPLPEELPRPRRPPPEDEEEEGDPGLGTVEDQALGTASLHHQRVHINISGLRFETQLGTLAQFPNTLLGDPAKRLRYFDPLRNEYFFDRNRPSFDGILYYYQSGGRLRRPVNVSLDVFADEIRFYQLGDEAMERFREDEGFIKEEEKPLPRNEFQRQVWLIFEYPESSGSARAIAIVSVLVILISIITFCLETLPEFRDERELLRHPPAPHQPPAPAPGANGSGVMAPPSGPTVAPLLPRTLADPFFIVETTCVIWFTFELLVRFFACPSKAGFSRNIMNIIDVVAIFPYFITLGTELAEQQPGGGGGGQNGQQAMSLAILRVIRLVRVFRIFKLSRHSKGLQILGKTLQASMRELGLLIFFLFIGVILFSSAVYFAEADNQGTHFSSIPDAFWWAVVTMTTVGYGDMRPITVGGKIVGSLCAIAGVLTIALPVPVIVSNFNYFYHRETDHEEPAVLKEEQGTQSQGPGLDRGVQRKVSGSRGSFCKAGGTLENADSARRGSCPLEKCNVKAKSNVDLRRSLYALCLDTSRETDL

On to `COCCN(N1CC(c2ccc(C3CC3)cc2)N(CCc2ccc(OC)cc2)C1=O)S(C)(=O)=O` (centres unmarked) [Compound 68, 1-[(N-Methoxyethyl-N-methylsulfonyl)amino]-3-[2-(4-methoxyphenyl)ethyl]-4-(4-cyclopropylphenyl)-2-imidazolidinone], for which, in the data set on L-type calcium channels, the pIC50 was 4.80. Besides, testing at 10 µM at HERG gave an inhibition of 48%. In addition, 1 µM produced 60% inhibition on Kv1.5.

`COc1ccc(CCN2C(=O)N(NC(C)=O)CC2Cc2ccc(C(C)(C)C)cc2)cc1` (centres unmarked) [Compound 71, 1-(Acetylamino)-3-[2-(4-methoxyphenyl)ethyl]-4-[(4-tert-butyl)benzyl]-2-imidazolidinone]: the pIC50 in the data set with L-type calcium channels is 4.89. The compound also registered an inhibition at 10 µM against HERG of 30%. The same compound gave an inhibition at 1 µM on Kv1.5 of 94%.

As to `COc1ccc(CCN2C(=O)N(NC(=O)C3CC3)CC2c2ccc(C(C)(C)C)cc2)cc1` (centres unmarked) [Compound 73, 1-Cyclopropanecarbonylamino-4-[4-(tert-butyl)phenyl]-3-[2-(4-methoxy-phenyl)ethyl]-2-imidazolidinone], the pIC50 in the data set with L-type calcium channels was 5.15. At HERG, this compound gave an inhibition at 10 µM of 56%. On Kv1.5, the inhibition at 1 µM is 62% and the negative-log IC50 (pIC50) is 6.18.

As to `COc1ccc(CCN2C(=O)N(NC(=O)c3ccno3)CC2c2ccc(C(C)(C)C)cc2)cc1` (centres unmarked) [Compound 79, 1-(Isoxazol-5-ylcarbonylamino)-3-[2-(4-methoxyphenyl)-ethyl]-4-[4-(tert-butyl)phenyl]-2-imidazolidinone], the pIC50 with L-type calcium channels is 4.96. The compound further yielded an inhibition at 10 µM on HERG of 70%. Testing at 1 µM against Kv1.5 gave an inhibition of 68%.

For the compound `COc1ccc(CCN2C(=O)N(NC(=O)CS(=O)(=O)N(C)C)CC2c2ccc(C3CC3)cc2)cc1` (centres unmarked) [Compound 82, N-(4-(4-cyclopropylphenyl)-3-(4-methoxyphenethyl)-2-oxoimidazolidin-1-yl)-2-(N,N-dimethylsulfamoyl)acetamide], in the data set on L-type calcium channels, the pIC50 was 4.52. Moreover, on HERG, the inhibition at 10 µM was determined as 42%. At Kv1.5, this compound yielded an inhibition at 1 µM of 72%.

For the compound `COc1ccc(CCN2C(=O)N(NCc3ccc(C#N)cc3)CC2c2ccc(C)c(C)c2)cc1` (centres unmarked) [Compound 83, 1-[(4-Cyanophenylmethyl)amino]-3-[2-(4-methoxyphenyl)ethyl]-4-(3,4-dimethylphenyl)-2-imidazolidinone], in the data set on L-type calcium channels, the pIC50 is 5.55. Moreover, at 10 µM the inhibition against HERG was 97%. Besides, the inhibition at 1 µM against Kv1.5 turned out to be 96%.

For `COc1ccc(CCN2C(=O)N(NCc3ccncc3)CC2c2ccc(C)c(C)c2)cc1` (centres unmarked) [Compound 84, 4-(3,4-Dimethylphenyl)-3-[2-(4-methoxyphenyl)ethyl]-1-[(pyridin-4-ylmethyl)amino]-imidazolidin-2-one], in the data set on L-type calcium channels, the pIC50 is 5.00. This compound also registered an inhibition at 10 µM against HERG of 73%. On Kv1.5, this compound showed an inhibition at 1 µM of 67% and a pIC50 of 6.24.

Regarding `COc1ccc(CCN2C(=O)N(NC(=O)OC(C)(C)C)CC2c2ccc(C)c(C)c2)cc1` (centres unmarked) [Compound 85, {4-(3,4-dimethylphenyl)-3-[2-(4-methoxyphenyl)ethyl]-2-oxo-imidazolidin-1-yl}-carbamic acid tert-butyl ester], in the data set on L-type calcium channels, the pIC50 was 5.48. For the same compound, at HERG, the inhibition at 10 µM is 52%. Also, at Kv1.5, testing at 1 µM gave an inhibition of 92%.

Take `COc1ccc(CCN2C(=O)N(NCc3ccccc3)CC2c2ccc(C)c(C)c2)cc1` (centres unmarked) [Compound 88, 1-Benzylamino-4-(3,4-dimethylphenyl)-3-[2-(4-methoxyphenyl)ethyl]-2-imidazolidinone]: the pIC50 in the data set on L-type calcium channels is 4.96; on Kv1.5 it was 6.40. At HERG, this compound gave an inhibition at 10 µM of 90%. 1 µM produced 94% inhibition against Kv1.5.

For the compound `COc1ccc(CCN2C(=O)N(NCc3ccc(F)cc3)CC2c2ccc(C)c(C)c2)cc1` (centres unmarked) [Compound 89, 1-[(4-Fluorophenylmethyl)amino]-3-[2-(4-methoxyphenyl)ethyl]-4-(3,4-dimethylphenyl)-2-imidazolidinone], the pIC50 with L-type calcium channels was 5.12. For the same compound, the inhibition at 10 µM on HERG came out at 98%. In addition, on Kv1.5, the inhibition at 1 µM stood at 85%.

On to `COc1ccc(CCN2C(=O)N(NCc3ccc(N(C)C)cc3)CC2c2ccc(OC)cc2)cc1` (centres unmarked) [Compound 90, 1-[(4-(Dimethylamino)phenylmethyl)amino]-3-[2-(4-methoxyphenyl)ethyl]-4-(4-methoxyphenyl)-2-imidazolidinone], for which the pIC50 with L-type calcium channels is 5.15. Moreover, the inhibition at 10 µM at HERG came to 28%. Moreover, at 1 µM the inhibition on Kv1.5 was 74%.

For the compound `COc1ccc(CCN2C(=O)N(NCc3ccc(N(C)C)cc3)CC2c2ccc(C)c(C)c2)cc1` (centres unmarked) [Compound 92, 1-[(4-(Dimethylamino)phenylmethyl)amino]-3-[2-(4-methoxyphenyl)ethyl]-4-(3,4-dimethylphenyl)-2-imidazolidinone], the pIC50 with L-type calcium channels is 4.52; at HERG, 5.25; against Kv1.5, 6.45. Also, testing at 10 µM against HERG gave an inhibition of 58%. At Kv1.5, this compound displayed an inhibition at 1 µM of 95%.

On to `COc1ccc(CCN2C(=O)N(NCc3cccnc3)CC2c2ccc(C)c(C)c2)cc1` (centres unmarked) [Compound 94, 1-[(Pyridin-3-ylmethyl)amino]-3-[2-(4-methoxyphenyl)ethyl]-4-(3,4-dimethylphenyl)-2-imidazolidinone], for which the pIC50 with L-type calcium channels is 4.89. Besides, the inhibition at 10 µM against HERG is 35%. The compound also gave an inhibition at 1 µM against Kv1.5 of 67%.

`COc1ccc(CCN2C(=O)N(NCc3cnc4ccccc4c3)CC2c2ccc(C)c(C)c2)cc1` (centres unmarked) [Compound 96, 4-(3,4-Dimethylphenyl)-3-[2-(4-methoxyphenyl)ethyl]-1-[(quinolin-3-ylmethyl)-amino]-2-imidazolidinone]: the pIC50 in the data set with L-type calcium channels is 5.72. The same compound registered an inhibition at 10 µM at HERG of 87%. Further, the inhibition at 1 µM against Kv1.5 came to 86%.

As for `COc1ccc(CCN2C(=O)N(N(CCn3ccnc3)C(=O)C(C)C)CC2c2ccc(C(C)(C)C)cc2)cc1` (centres unmarked) [Compound 99, 1-N-[2-(Imidazol-1-yl)ethyl]-N-[iso-butyroyl]amino-3-[2-(4-methoxyphenyl)-ethyl]-4-[(4-tert-butyl)phenyl]-2-imidazolidinone], the pIC50 in the data set on L-type calcium channels is 5.31. Besides, 10 µM produced 90% inhibition on HERG. Further, the inhibition at 1 µM against Kv1.5 came to 73%.

On to `COc1ccc(CCN2C(=O)N(N(CCn3ccnc3)C(C)=O)CC2c2ccc(C(C)(C)C)cc2)cc1` (centres unmarked) [Compound 100, 1-N-[2-(Imidazol-1-yl)ethyl]-N-[acetyl]amino-3-[2-(4-methoxyphenyl)ethyl]-4-[(4-tert-butyl)phenyl]-2-imidazolidinone], for which, in the data set on L-type calcium channels, the pIC50 was 4.80. In addition, 10 µM produced 92% inhibition against HERG. This compound yielded an inhibition at 1 µM on Kv1.5 of 46%.

For `COc1ccc(C2CN(NS(=O)(=O)Cc3cccnc3)C(=O)N2CCCc2ccccc2)cc1` (centres unmarked) [Compound 101, 1-[(Pyridin-3-yl)methylsulfonyl]amino-3-(3-phenylpropyl)-4-(4-methoxyphenyl)-2-imidazolidinone], the pIC50 in the data set on L-type calcium channels is 4.72. The inhibition at 10 µM on HERG was 24%. This compound also came in with an inhibition at 1 µM on Kv1.5 of 81%.

With `COc1ccc(CCCN2C(=O)N(NS(=O)(=O)CC(N)=O)CC2c2ccc(C3CC3)cc2)cc1` (centres unmarked) [Compound 104, 1-[(2-Amino-2-oxoethyl)sulfonylamino]-3-[3-(4-methoxyphenyl)propyl]-4-(4-cyclopropylphenyl)-2-imidazolidinone], the negative-log IC50 (pIC50) with L-type calcium channels was 4.68. The same compound showed an inhibition at 10 µM on HERG of 56%. The same compound gave an inhibition at 1 µM against Kv1.5 of 87%.

For `COc1ccc(CCN2C(=O)N(NS(C)(=O)=O)C[C@H]2c2ccc(OC)cc2)cc1` [Compound 106, 1-(Methylsulfonylamino)-3-[2-(4-methoxyphenyl)ethyl]-4-(R)-(4-methoxyphenyl)-2-imidazolidinone], the pIC50 in the data set on L-type calcium channels was 4.52. On HERG, this compound had a pIC50 of 4.46 and an inhibition at 10 µM of 17%. At Kv1.5, this compound gave an inhibition at 1 µM of 74% and a pIC50 of 6.32.

Turning to `COc1ccc(CCN2C(=O)N(NS(C)(=O)=O)C[C@@H]2c2ccc(OC)cc2)cc1` [Compound 107, N-{(4S)-4-(4-methoxyphenyl)-3-[2-(4-methoxyphenyl)ethyl]-2-oxoimidazolidin-1-yl}methanesulfonamide], the pIC50 with L-type calcium channels was 4.41; at HERG, 4.27; against Kv1.5 it was 5.96. At Kv1.5, this compound had an inhibition at 1 µM of 41%.

On to `COc1ccc(CCN2C(=O)N(NS(=O)(=O)CCS(C)(=O)=O)CC2c2ccc(C3CC3)cc2)cc1` (centres unmarked) [Compound 114, N-{4-(4-cyclopropylphenyl)-3-[2-(4-methoxyphenyl)ethyl]-2-oxoimidazolidin-1-yl}-2-(methylsulfonyl)ethanesulfonamide], for which the pIC50 in the data set with L-type calcium channels was 4.82. This compound also showed an inhibition at 10 µM on HERG of 55%. Besides, testing at 1 µM against Kv1.5 gave an inhibition of 75%.

For the compound `COc1ccc(CCCN2C(=O)N(N)CC2c2ccc(C(C)(C)C)cc2)cc1` (centres unmarked) [Compound 119, 1-amino-4-(4-tert-butylphenyl)-3-[3-(4-methoxyphenyl)propyl]imidazolidin-2-one], the pIC50 in the data set with L-type calcium channels was 5.70. This compound also yielded an inhibition at 10 µM on HERG of 70%. The compound further had an inhibition at 1 µM against Kv1.5 of 80%.

For the compound `COc1ccc(CCCN2C(=O)N(NS(=O)(=O)CS(C)(=O)=O)CC2c2ccc(C3CC3)cc2)cc1` (centres unmarked) [Compound 127, N-{4-(4-cyclopropylphenyl)-3-[3-(4-methoxyphenyl)propyl]-2-oxoimidazolidin-1-yl}-1-(methylsulfonyl)methanesulfonamide], in the data set with L-type calcium channels, the pIC50 was 4.72. This compound showed an inhibition at 10 µM against HERG of 54%. This compound also returned an inhibition at 1 µM at Kv1.5 of 91%.
